Patent US10155768B2, “Fused pyrimidine compound or salt thereof” (TAIHO PHARMACEUTICAL CO., LTD., priority 2016, dated 2018)

assay: Evaluation of stability in liver microsome; details: mouse liver microsome 0.25 mg/mL, 1 μM test compound, 37° C. for 30 minutes

Compound	Remaining (%)
COCc1ccc(NC(=O)c2c(-c3cccnc3)n(C3(C)CC3)c3ncnc(N)c23)cc1 [Example 61, 4-amino-N-(4-(methoxymethyl)phenyl)-7-(1-methylcyclopropyl)-6-(pyridin-3-yl)-7H-pyrrolo[2,3-d]pyrimidine-5-carboxamide]	81%
COCc1ccc(NC(=O)c2c(OCC3CCCC3)n(C3(C)CC3)c3ncnc(N)c23)cc1 [Example 140, 4-amino-6-(cyclopentylmethoxy)-N-(4-(methoxymethyl)phenyl)-7-(1-methylcyclopropyl)-7H-pyrrolo[2,3-d]pyrimidine-5-carboxamide]	52%
COCc1ccc(NC(=O)c2cn(C(C)(C)C)c3ncnc(N)c23)cc1F [Example 30, 4-amino-7-(tert-butyl)-N-(3-fluoro-4-(methoxymethyl)phenyl)-7H-pyrrolo[2,3-d]pyrimidine-5-carboxamide]	54%
COCc1ccc(NC(=O)c2c(C(C)=O)n(C3(C)CC3)c3ncnc(N)c23)cc1 [Example 64, 6-acetyl-4-amino-N-(4-(methoxymethyl)phenyl)-7-(1-methylcyclopropyl)-7H-pyrrolo[2,3-d]pyrimidine-5-carboxamide]	89%
COCc1ccc(NC(=O)c2c(C#CCC3(O)CCOCC3)n(C3(C)CC3)c3ncnc(N)c23)cc1 [Example 143, 4-amino-6-(3-(4-hydroxytetrahydro-2H-pyran-4-yl)prop-1-yn-1-yl)-N-(4-(methoxymethyl)phenyl)-7-(1-methylcyclopropyl)-7H-pyrrolo[2,3-d]pyrimidine-5-carboxamide]	68%
C=C(C)c1c(C(=O)Nc2ccc(COC)cc2)c2c(N)ncnc2n1C1(C)CC1 [Example 149, 4-amino-N-(4-(methoxymethyl)phenyl)-7-(1-methylcyclopropyl)-6-(prop-1-en-2-yl)-7H-pyrrolo[2,3-d]pyrimidine-5-carboxamide]	62%
COCc1ccc(NC(=O)c2c(OCC(C)(C)OC)n(C3(C)CC3)c3ncnc(N)c23)cc1 [Example 137, 4-amino-6-(2-methoxy-2-methylpropoxy)-N-(4-(methoxymethyl)phenyl)-7-(1-methylcyclopropyl)-7H-pyrrolo[2,3-d]pyrimidine-5-carboxamide]	53%
COCc1ccc(NC(=O)c2cn(C3(C)CC3)c3ncnc(N)c23)cc1 [Example 36, 4-amino-N-(4-(methoxymethyl)phenyl)-7-(1-methylcyclopropyl)-7H-pyrrolo[2,3-d]pyrimidine-5-carboxamide]	73%
COCc1ccc(NC(=O)c2c(OCC3CCCO3)n(C3(C)CC3)c3ncnc(N)c23)cc1 (stereo not shown) [Example 135, 4-amino-N-(4-(methoxymethyl)phenyl)-7-(1-methylcyclopropyl)-6-((tetrahydrofuran-2-yl)methoxy)-7H-pyrrolo[2,3-d]pyrimidine-5-carboxamide]	67%
COCc1ccc(NC(=O)c2c(C#Cc3ccccc3OC)n(C3(C)CC3)c3ncnc(N)c23)cc1 [Example 113, 4-amino-N-(4-(methoxymethyl)phenyl)-6-((2-methoxyphenyl)ethynyl)-7-(1-methylcyclopropyl)-7H-pyrrolo[2,3-d]pyrimidine-5-carboxamide]	79%
COCc1ccc(NC(=O)c2c(OCC3CCOCC3)n(C3(C)CC3)c3ncnc(N)c23)cc1 [Example 141, 4-amino-N-(4-(methoxymethyl)phenyl)-7-(1-methylcyclopropyl)-6-((tetrahydro-2H-pyran-4-yl)methoxy)-7H-pyrrolo[2,3-d]pyrimidine-5-carboxamide]	68%
COCc1ccc(NC(=O)c2c(C#Cc3c[nH]c4ccccc34)n(C3(C)CC3)c3ncnc(N)c23)cc1 [Example 121, 6-((1H-indol-3-yl)ethynyl)-4-amino-N-(4-(methoxymethyl)phenyl)-7-(1-methylcyclopropyl)-7H-pyrrolo[2,3-d]pyrimidine-5-carboxamide]	74%

Second part, the compound after the results:

Remaining (%)	Compound
78%	COCc1ccc(NC(=O)c2c(-c3cnn(C)c3)n(C3(C)CC3)c3ncnc(N)c23)cc1 [Example 150, 4-amino-N-(4-(methoxymethyl)phenyl)-6-(1-methyl-1H-pyrazol-4-yl)-7-(1-methylcyclopropyl)-7H-pyrrolo[2,3-d]pyrimidine-5-carboxamide]
78%	COCc1ccc(NC(=O)c2c(C#Cc3cnc4ccoc4c3)n(C3(C)CC3)c3ncnc(N)c23)cc1 [Example 159, 4-amino-6-(furo[3,2-b]pyridin-6-ylethynyl)-N-(4-(methoxymethyl)phenyl)-7-(1-methylcyclopropyl)-7H-pyrrolo[2,3-d]pyrimidine-5-carboxamide]
77%	COCc1ccc(NC(=O)c2c(C#CCN3CCOCC3)n(C3(C)CC3)c3ncnc(N)c23)cc1F [Example 206, 4-amino-N-(3-fluoro-4-(methoxymethyl)phenyl)-7-(1-methylcyclopropyl)-6-(3-morpholinoprop-1-yn-1-yl)-7H-pyrrolo[2,3-d]pyrimidine-5-carboxamide]
72%	COCc1ccc(NC(=O)c2c(C#CC(C)(C)O)n(C3(C)CC3)c3ncnc(N)c23)cc1 [Example 174, 4-amino-6-(3-hydroxy-3-methylbut-1-yn-1-yl)-N-(4-(methoxymethyl)phenyl)-7-(1-methylcyclopropyl)-7H-pyrrolo[2,3-d]pyrimidine-5-carboxamide]
72%	CCc1c(C(=O)Nc2ccc(COC)cc2)c2c(N)ncnc2n1C1(C)CC1 [Example 207, 4-amino-6-ethyl-N-(4-(methoxymethyl)phenyl)-7-(1-methylcyclopropyl)-7H-pyrrolo[2,3-d]pyrimidine-5-carboxamide]
53%	COCc1ccc(NC(=O)c2c(C#Cc3cnc[nH]3)n(C3(C)CC3)c3ncnc(N)c23)cc1 [Example 191, 6-((1H-imidazol-5-yl)ethynyl)-4-amino-N-(4-(methoxymethyl)phenyl)-7-(1-methylcyclopropyl)-7H-pyrrolo[2,3-d]pyrimidine-5-carboxamide]
53%	COCc1ccc(NC(=O)c2c(C#Cc3cncnc3)n(C3(C)CC3)c3ncnc(N)c23)cc1 [Example 196, 4-amino-N-(4-(methoxymethyl)phenyl)-7-(1-methylcyclopropyl)-6-(pyrimidin-5-ylethynyl)-7H-pyrrolo[2,3-d]pyrimidine-5-carboxamide]
88%	COCc1ccc(NC(=O)c2c(C#CCN3CC[S+]([O-])CC3)n(C3(C)CC3)c3ncnc(N)c23)cc1 [Example 178, 4-amino-N-(4-(methoxymethyl)phenyl)-7-(1-methylcyclopropyl)-6-(3-(1-oxidethiomorpholino)prop-1-yn-1-yl)-7H-pyrrolo[2,3-d]pyrimidine-5-carboxamide]
70%	COCc1ccc(NC(=O)c2c(C#Cc3ccsc3)n(C3(C)CC3)c3ncnc(N)c23)cc1 [Example 176, 4-amino-N-(4-(methoxymethyl)phenyl)-7-(1-methylcyclopropyl)-6-(thiophen-3-ylethynyl)-7H-pyrrolo[2,3-d]pyrimidine-5-carboxamide]
68%	COCc1ccc(NC(=O)c2c(C#CCCN3CCOCC3)n(C3(C)CC3)c3ncnc(N)c23)cc1 [Example 187, 4-amino-N-(4-(methoxymethyl)phenyl)-7-(1-methylcyclopropyl)-6-(4-morpholinobut-1-yn-1-yl)-7H-pyrrolo[2,3-d]pyrimidine-5-carboxamide]
